Patent US6906098B2, “Mixed steroidal 1,2,4,5-tetraoxane compounds and methods of making and using thereof” (priority 2002, dated 2005)
In brackets after ≈: the same amount, converted by molar mass.

Key:
[1] = system: Plasmodium falciparum chloroquine-susceptible strain D6; test: In vitro antimalarial drug susceptibility assay (radiolabeled hypoxanthine incorporation), strain D6; format: cell-based; conditions: Plasmodium falciparum, D6, 66 h, read-out: Strain D6 IC50, growth inhibition, chloroquine-susceptible strain D6, 66 h incubation
[2] = system: Plasmodium falciparum chloroquine-resistant strain W2; test: microbe, parasite or virus in culture; format: cell-based; conditions: Plasmodium falciparum, W2, 66 h, read-out: Strain W2 IC50, growth inhibition, chloroquine-resistant strain W2, 66 h incubation
[3] = system: D6 and W2 P. falciparum clones; format: cell-based, Plasmodium falciparum; conditions: IC50 (W2)/IC50 (D6) ratio
[4] = system: Mycobacterium tuberculosis H37Rv (ATCC 27294); test: Primary screen, Microplate Alamar Blue Assay (MABA), percent inhibition; format: cell-based; conditions: Mycobacterium tuberculosis, Table 5; Alamar assay, primary screening at 6.25 μg/ml; read-out: % Inhib
Method in brief: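 Single-concentration screen at 6.25 μg/ml (or molar equivalent of the heaviest congener in a series) against H37Rv grown in BACTEC 12B medium. Growth read by Microplate Alamar Blue Assay, reported as percent inhibition.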

M. tuberculosis H37Rv = test: Minimum inhibitory concentration (MIC) in the MABA; format: cell-based, Mycobacterium tuberculosis; conditions: Mycobacterium tuberculosis, H37RV, Table 5; Alamar assay, M. tuberculosis H37Rv; read-out: MIC
Method in brief: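 Run under the NIAID TAACF screening program against M. tuberculosis by fluorescence read-out. MIC taken as the lowest concentration giving 90% reduction in fluorescence relative to controls.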

VERO cells [5] = conditions: ratio of IC50 in VERO cells to MIC (M. tuberculosis H37Rv)
VERO cells [6] = test: cells; conditions: Chlorocebus sabaeus, Table 5

## CCNC(=O)CCC(C)[C@H]1CCC2C3C(C[C@H](OC(C)=O)[C@@]21C)[C@@]1(C)CCC2(C[C@H]1C[C@H]3OC(C)=O)OOC1(CCCCC1C)OO2 (stereo partly drawn) [15/1C24, N-Ethyl-7α,12α-diacetoxy-5β-cholan-24-amide-3-spiro-6′-(1′,2′,4′,5′-tetraoxacyclohexane)-3′-spiro-1″-(2″-methyl)cyclohexane]
[1]
  IC50: 0.00837 µg/mL (≈ 0.0126 µM)
[2]
  IC50: 0.00461 µg/mL (≈ 0.00697 µM)
[3]
  Resistance Index: 0.55
[4]
  inhibition at 6.25 µg/mL: 98%
M. tuberculosis H37Rv
  MIC: 3.13 µg/mL (≈ 4.73 µM)
VERO cells [5]
  SI (selectivity index): 2.24
VERO cells [6]
  IC50: 7.02 µg/mL (≈ 10.6 µM)
